Columns and labels:
tsFT210 cells = assay: Flow cytometry, G2/M arrest in tsFT210 cells; type: cell-based, mouse; settings: 2.5 to 10 μM, 6 hours after release at 32.0° C.
Procedure: Oncogene 18:6989-6996, Th′ng JP, Wright PS, Hamaguchi J, Lee MG, Norbury CJ, Nurse P and Bradbury EM (1990) The FT210 cell line is a mouse G2 phase mutant with a temperature-sensitive CDC2 gene product. Cell 63:313-324.). Cell proliferation was blocked at G2 phase by incubation at 39.4° C. for 17 h. The synchronized cells were then released by re-incubating at 32.0° C. and treated immediately with 0-10 μM SR-7, 1 μM nocodazole or 100 EM SC-ααδ9, respectively, to probe for G2/M arrest. […] The harvested cells were stained with a solution containing 50 μg/ml propidium iodide and 250 μg/ml RNase A. Flow cytometry analysis was conducted with a Becton Dickinson FACS Star (Franklin Lakes, N.J.). […] This G2/M retention at 4C is probably due to the extended cell cycle blockage at 39.4° C. (Osada H, Cui CB, Onose R and Hanaoka F (1997) Screening of cell cycle inhibitors from microbial metabolites by a bioassay using a mouse cdc2 mutant cell line, tsFT210. Bioorg Med Chem 5:193-203). […] SC-ααδ9 is an inhibitor of the Cdc25 family of phosphatases that controls cell cycle checkpoints (Rice RL, Rusnak JM, Yokokawa F, Yokokawa S, Messner DJ, Boynton AL, Wipf P and Lazo JS (1997) A targeted library of small molecule, tyrosine and dual specificity phosphatase inhibitors derived from a rational core design and random side chain variation. Biochemistry 36:15965-15974).

PTPIB = target: T1, PTPIB (Homo sapiens, UniProt P18031); assay: In vitro inhibition of PTPIB; type: biochemical; settings: 30 μM, data not shown
T1 sequence (P18031 1-435): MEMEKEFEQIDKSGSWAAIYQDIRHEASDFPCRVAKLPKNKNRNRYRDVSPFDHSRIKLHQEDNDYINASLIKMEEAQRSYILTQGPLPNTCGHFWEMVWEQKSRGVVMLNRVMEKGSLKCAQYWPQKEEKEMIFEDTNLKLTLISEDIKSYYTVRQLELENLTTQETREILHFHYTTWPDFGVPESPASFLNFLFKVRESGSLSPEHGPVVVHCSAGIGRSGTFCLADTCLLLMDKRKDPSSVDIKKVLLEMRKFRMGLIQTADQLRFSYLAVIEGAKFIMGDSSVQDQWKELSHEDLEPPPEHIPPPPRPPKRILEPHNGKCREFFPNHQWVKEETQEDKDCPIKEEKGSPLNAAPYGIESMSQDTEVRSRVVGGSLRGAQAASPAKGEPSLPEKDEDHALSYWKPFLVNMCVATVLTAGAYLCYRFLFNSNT

bovine tubulin = assay: Tubulin hypernucleation without GTP; type: biochemical; settings: in vitro
Procedure: The inventors examined the ability of SR-7 to alter tubulin polymerization or depolymerization in vitro. FIG. 28, Panel A. Compounds (predissolved in DMSO) were preincubated with tubulin containing monosodium glutamate at 30 ° C. for 15 min. Samples were cooled to 0 ° C. and GTP was added. Samples were placed in a temperature-controlled multi-cuvette holder of a spectrophotometer held at 0 ° C. Baselines were established and temperature was rapidly raised to 30 ° C. Turbidity development in the cuvettes was measured at 350 nm. FIG. 28, Panel B. Compounds were added to the tubulin plus monosodium glutamate mixture at 0 ° C., placed in the spectrophotometer and temperature was raised to 30 ° C. Addition of 0.4 mM GTP to isolated bovine brain tubulin produced robust polymerization that began to plateau approximately 20 min after microtubule assembly commenced (Panel A).

bovine brain tubulin = assay: Inhibition of [3H]colchicine binding; settings: 5 μM compound; Mean ± SEM, N = 9
Procedure: Using methods described previously (Verdier-Pinard P, Lai J-Y, Yoo H-D, Yu J, Marquez B, Nagle DG, Nambu M, White JD, Falck JR, Gerwick WH, Day BW and Hamel E (1998) Structure-activity analysis of the interaction of curacin A, the potent colchicine site antimitotic agent, with tubulin and effects of analogs on the growth of MCF-7 breast cancer cells. Mol Phannacol 53:62-76.). 5,μM [^3H]colchicine was incubated with either 5% DMSO vehicle or compound (5 or 50 μM) at 37° C. for 15 min with 1 μM tubulin in the presence of 1 M monosodium glutamate, 0.1 M glucose-1-phosphate, 1 mM MgCl2, 1 mM GTP and 0.5 mg/ml bovine serum albumin. The solutions were filtered through two stacks of DEAE-cellulose filters and the radioactivity in the filtrate was determined by liquid scintillation spectrometry. Each series of determinations included positive controls of 5 and 50 μM curacin A. The inventors found no evidence that SR-7 could bind to the colchicine site of tubulin. […] The inventors propose that SR-7 may act at another site such as the previously characterized vinca alkaloid site.

Bcl-2 = Bcl-2 phosphorylation immunoblot in MCF-7 cells; type: cell-based, human; settings: 3 or 10 μM
Excerpt: Attempts to determine the phosphorylation status of Bcl-2 in tsFT210 cells using two different antibodies were unsuccessful due to the antibodies' inability to detect mouse Bcl-2 or the lack of specificity. Therefore, phosphorylated and non-phosphorylated Bcl-2 was detected in lysates from human MCF-7 cells (American Type Culture Collection, Manassas, Va.) treated with microtubule perturbing agents. Equal amounts of protein were separated by electrophoresis on 15% SDS-PAGE followed by immunoblotting with an antihuman Bcl-2 antibody (sc-509, Santa Cruz Biotechnology). Positive antibody reactions were visualized using peroxidase-conjugated secondary antibodies (Jackson ImmunoResearch, West Grove, Pa.) and an enhanced chemiluminescence detection system (Renaissance, NEN, Boston, Mass.) according to manufacturer's instructions.
All known microtubule disrupting compounds cause hyperphosphorylation of the antiapoptotic protein Bcl-2 (Haldar S, Jena N and Croce CM (1995) Inactivation of bcl-2 by phospliorylation. Proc Natl Acad Sci USA 92:4507-4511 and Basu A and Haldar S (1998) Microtubule-damaging drugs trigger bcl2 phosphorylation-requirement of phosphorylation on both serine-70 and serine-87 residues of bcl2 protein. Intl J Oncol 13:659-664). Therefore, the phosphorylation status of Bcl-2 in cells treated with various compounds including SR-7 was examined and the results are illustrated in FIG. 29. Proteins from lysates of MCF-7 cells treated with 0.5 μM paclitaxel, 1 μM nocodozole, 1,μM vincristine and, 3 or 10 μM SR-7 were separated by electrophoresis on 15% SDS-PAGE followed by immunoblotting with an antibody to Bcl-2. The phosphorylated form of Bcl-2 (P) appeared as the upper bands and the underphosphorylated form (U) was the lower band.

O=C1C=CC2(Oc3cccc4cccc(c34)O2)c2cccc(OCc3ccco3)c21 [SR-7, 8-(furan-2-ylmethoxy)-1-oxo-1,4-dihydronaphthalene-4-spiro-2′-naphto [1″,8″-de][1′,3′] dioxin]
G2/M cell cycle transition (tsFT210 cells): concentration-dependent arrest in the G2/M phase | G2/M cell cycle transition (tsFT210 cells; listed as 27): can arrest mammalian cells in the G2/M phase | inhibition of PTPIB activity (PTPIB): no inhibition | hypernucleation of tubulin (bovine tubulin): failed in vitro to hypernucleate bovine tubulin | Percent inhibition of [3H]colchicine binding (bovine brain tubulin): 1.5 ± 0.5% | Bcl-2 phosphorylation (Bcl-2): failed to generate significant hyperphosphorylated Bcl-2

Source: US6673937B2, “Syntheses and methods of use of new antimitotic agents” (The University of Pittsburgh, priority 2000, dated 2004)
